Measured values: patent publication US8969573B2, “Compounds for the inhibition of cellular proliferation” (President and Fellows of Harvard College, priority 2010, dated 2015)
Read-outs that look alike come from different tables or passages of the source.

How the values were obtained:
eIF4E = eIF4E (Homo sapiens, UniProt P06730); test: NMR binding experiments (titration with protein)
Method: Experiments were carried out with representative compounds to provide an indication of the ability of the compounds of the present invention to bind to eIF4E and therefore act as inhibitors of the binding of eIF4E to eIF4G.

CRL2813 human melanoma = test: SRB assay (inhibition of cell proliferation); assay type: cell-based
[1] = system: CRL2351 human breast cancer; test: SRB assay (inhibition of cell proliferation); assay type: cell-based; conditions: CRL2351 human breast cancer cells
eIF4E/eIF4G interaction = eIF4E/eIF4G interaction (Homo sapiens, UniProt P06730); test: Fluorescent polarization assay; assay type: binding; conditions: FITC eIF4G peptide and recombinant eIF4E, ratio to Z (4EGI-1 = 1)
Sequence of eIF4E/eIF4G interaction (P06730 whole entry): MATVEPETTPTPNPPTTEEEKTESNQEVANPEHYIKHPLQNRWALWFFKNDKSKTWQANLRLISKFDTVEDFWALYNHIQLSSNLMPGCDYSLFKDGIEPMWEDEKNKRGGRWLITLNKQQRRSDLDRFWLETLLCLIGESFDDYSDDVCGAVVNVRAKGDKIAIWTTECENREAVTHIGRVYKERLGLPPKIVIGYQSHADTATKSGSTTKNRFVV
Method: The difference between the two measurement yields net polarization which is considered full signal of the assay (100% control). […] The activity of compound at each concentration is determined by comparing the fluorescent polarization (FP) signal in the presence of compound to the control (no compound) value. The percent inhibition is =100-((FP compound/FP control)*100).

[2] = summary table, read-out: IC50 [μM} CRL2351
[3] = Homo sapiens, CRL2813, CRL2813 human melanoma cells, summary table, read-out: IC50 [μM} CRL2813
[4] = Homo sapiens, summary table, read-out: IC50 [μM} CRL2351

Sequence of eIF4E (P06730 27-217 limits assumed): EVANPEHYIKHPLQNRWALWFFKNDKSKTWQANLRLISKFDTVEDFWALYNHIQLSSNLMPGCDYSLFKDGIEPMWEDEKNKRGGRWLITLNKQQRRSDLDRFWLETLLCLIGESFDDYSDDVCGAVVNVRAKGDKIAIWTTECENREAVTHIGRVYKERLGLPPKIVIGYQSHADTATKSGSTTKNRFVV

Row | Compound | IC50 (eIF4E) | Fp (ratio to Z) (eIF4E/eIF4G interaction) | IC50 (CRL2813 human melanoma; [3]) | IC50 [1, 4] | also measured
1 | O=C(O)C(Cc1ccccc1[N+](=O)[O-])NNc1nc(-c2ccc(Cl)c(Cl)c2)cs1 (stereo not drawn) [KY-720] | ~4 µM | – | – | – | –
2 | O=C(O)[C@H](Cc1ccccc1[N+](=O)[O-])Nc1nc(-c2ccc(Cl)c(Cl)c2)cs1 [KY-549] | ~7 µM | – | – | – | –
3 | O=C(O)C(Cc1ccc(O)cc1)=NNc1nc(-c2cccc([N+](=O)[O-])c2)cs1 [KY-A6] | ~5 µM | – | – | – | –
4 | [N-]=[N+]=NCCCOc1ccc(-c2csc(N/N=C(/Cc3ccccc3[N+](=O)[O-])C(=O)O)n2)cc1 [KH-167s] | – | 0.91 | – | – | IC50 (CRL2813 human melanoma; CRL2813 human melanoma cells, Tables 1, 4, 5, read-out: SRB-IC50 (μM) 2813): 11.9 µM; IC50 (CRL2813 human melanoma; CRL2813 human melanoma cells, summary table, read-out: IC50 [μM} CRL2813): 12 µM; IC50 [1, 2]: 2.7 µM; IC50 ([1]; Homo sapiens, Tables 1, 4, 5, read-out: SRB-IC50 (μM) 2351): 2.8 µM
5 | O=C(O)/C(=N/Nc1nc(-c2ccc(Cl)c(Cl)c2)cs1)c1cccc([N+](=O)[O-])c1 [KY-788-E, (E)-2-(2-(4-(3,4-dichlorophenyl)thiazol-2-yl)hydrazono)-2-(3-nitrophenyl)acetic acid] | – | 1.4 | 7 µM | – | IC50 [1, 2]: 18 µM
6 | COc1ccc(-c2sc(N/N=C(/Cc3ccccc3[N+](=O)[O-])C(=O)O)nc2-c2ccc(OC(C)C)cc2)cc1 [KY-599S] | – | 1.3 | 3 µM | 8.7 µM | –
7 | COc1ccc(-c2csc(NN=C(Cc3ccccc3[N+](=O)[O-])C(=O)O)n2)cc1 [EK-B2] | – | 0.86 | 11 µM | 7 µM | –
8 | O=C(O)/C(Cc1ccccc1)=N/Nc1nc(-c2ccc(Cl)c(Cl)c2)cs1 [KY-706bc] | – | 0.65 | 3 µM | 3.5 µM | –
9 | COC(=O)C1CN(c2nc(-c3ccc(Cl)c(Cl)c3)cs2)CCN1c1ccccc1[N+](=O)[O-] (stereo not drawn) [RYF-273] | – | 0.55 | 3.5 µM | 0.54 µM | –
10 | COc1ccc(-c2nc(NN=C(Cc3ccccc3[N+](=O)[O-])C(=O)O)sc2-c2ccc(-n3cc(CO)nn3)cc2)cc1 [KY-383, 2-{[5-[4-(4-hydroxymethyl-[1,2,3]triazol-1-yl)-phenyl]-4-(4-methoxy-phenyl)-thiazol-2-yl]-hydrazono}-3-(2-nitro-phenyl)-propionic acid] | ~3 µM | 2.3 | 13 ± 3.6 µM | > 20 µM | –
11 | COc1ccc(-c2nc(N/N=C(\Cc3ccccc3[N+](=O)[O-])C(=O)O)sc2-c2ccc(I)cc2)cc1 [KY-613S] | – | 1.1 | 2.7 µM | 9.5 µM | –
12 | COc1ccc(-c2nc(N/N=C(/Cc3ccccc3[N+](=O)[O-])C(=O)O)sc2-c2cccc(-n3cc(CO)nn3)c2)cc1 [KY-467S] | – | 0.85 | > 20 µM | > 20 µM | –
